ChEMBL document CHEMBL1130550, “Sch 207278: a novel farnesyl protein transferase inhibitor from an unidentified fungus” (Bioorg Med Chem Lett, 1997)

How the values were obtained:
[1] = molecular target: Protein farnesyltransferase (Homo sapiens, UniProt P49354+P49356); test: Inhibition of Farnesyltransferase; assay type: protein-complex assay
[2] = Inhibition of Geranylgeranyl transferase type I; design: species or system Homo sapiens

Row | IC50 [1] | IC50 [2] | Structure (SMILES)
1 | 3.5 µM | 70 µM | O=Cc1cc(O)c(C=O)c(C(=O)c2cccc(O)c2O)c1
2 | 2.4 µM | 85 µM | CC(=O)Oc1cc(C=O)cc(C(=O)c2cccc(OC(C)=O)c2OC(C)=O)c1C=O
